Measurements as given in patent US11965100B2, “Aggregation-induced emission luminogens useful for cancer cell discrimination and monitoring” (The Hong Kong University of Science and Technology, priority 2020, dated 2024).

What was measured:
[1] = test system: A549 and HLF cells; assay: CLSM imaging of A549 and HLF cells seeded on different cover glasses in the same dish; assay type: cell-based, human; conditions: 2 μM, 30 min
Protocol: FIG. 5 CLSM images of live cancer cells (A549 and HeLa) co-cultured with normal cells (COS7 and HLF) (A), and the images of A549 and HLF cells seeded on different cover glasses (Scale bar=20 μm) (B) stained with 2 μM IVP-02 for 30 min (Scale bar=50 μm), respectively. λex=488 nm, λem=500-650 nm.
FIG. 10 CLSM images of live cancer cells (A549) co-cultured with normal cells (COS7) (A), and the images of A549 and HLF cells seeded on different cover glasses Scale bar=20 μm (B) stained with 2 μM IVP-02, 04, 06, 22, 42, and 62 for 30 min Scale bar=50 μm, respectively. (The first column in B is the same as FIG. 3B) λex=488 nm, λem=500-650 nm.
(§1) The bioimaging properties of IVP-02 in live cells were investigated by confocal laser scanning microscopy (CLSM). Cancer cells (A549 and HeLa) and normal cells (COS7 and HLF) were stained with IVP-02, respectively. […] So IVP-02 holds the high potential to differentiate cancer and normal cells. To verify this speculation, cancer and normal cells were co-cultured and stained with IVP-02. […] To precisely confirm the selectivity of IVP-02 to cancer cells, cancer cells A549 and normal cells HLF (A549 and HLF are both human lung cells) were seeded on different cover glasses, respectively. Then the two cover glasses were put in the same dish and stained with IVP-02 at the same time.
Cancer cells A549 co-cultured with normal cells COS7 were stained with these molecules, respectively. […] Then HeLa cells co-cultured with COS7 cells (FIG. 11), and A549 cells co-cultured with HLF cells (FIG. 12) were also stained with these molecules, the results were similar with that in A549 cells co-cultured with COS7 cells. In addition to co-culturing, A549 cells and HLF cells were also seeded on different cover glasses and stained with these molecules. […] Based on the imaging results above, it can be concluded that the selectivity of these IVP molecules to cancer cells is also based on the length of alkyl chain at pyridinium salt side. Lengthening the alkyl chain at the pyridinium salt side will eliminate the selectivity to cancer cells.

[2] = Two-photon absorption cross section in DMSO, fluorescein as standard; assay type: physicochemical
Text: In addition, IVP-02 emits redder fluorescence in solid state than that in solution. To testify the mechanism of the red shift in solid state of IVP-02, its crystal has been analyzed in FIGS. 2G and 2H. The molecules of IVP-02 are anti-parallelly stacked and form multimers in the crystalline state. The short intermolecular stacking distances of the multimers are 3.636 Å, 3.455 Å, 3.394 Å, 3.375 Å, 3.466 Å, and 3.465 Å, indicating strong intermolecular interactions inside the multimers. So the red-shift emission in solid state should be attributed to the intermolecular π-π interactions induced by the short contact between the molecules. […] The TPEF spectra of IVP-02 excited at different pulse wavelengths (780-900 nm) in DMSO were measured in FIG. 2F. The highest […] was 287 GM excited at 800 nm. Such high δ value is beneficial for two-photon imaging in live cells and deep tissues.

[3] = Absorption and one-photon excited fluorescence spectra, AIE activity; assay type: physicochemical
Text: Similar results were reported by others. […] With the increase of glycerol volume content accompanied by viscosity increasing, the FL intensity increased gradually. […] These phenomena occur because high viscosity and low temperature could hamper intramolecular motion, leading to the closure of the nonradiative decay channel and thus enhanced FL emission. Furthermore, we added some RNA in PBS solution of IVP-02. […] Based on the calculation results in FIG. 20, IVP-02 located in the minor grooves of RNA, where the intramolecular motion of IVP-02 was also hampered.

[4] = test system: mitochondria in HeLa and A549 cells; assay: Co-stain with mitochondrial probe MitoTracker Deep Red FM (MTDR); assay type: cell-based; conditions: 2 μM dye, 0.2 μM MTDR, HeLa and A549
Protocol: FIG. 6 CLSM images of live HeLa and A549 cells stained with 2 μM IVP-02 and 0.2 μM MTDR, respectively. IVP-02: λex=488 nm, λem=500-650 nm; MTDR: λex=640 nm, λem=650-700 nm. Scale bar=20 μm.
In the above pictures, filamentous structures in cytoplasm of cancer cells were observed, which were typical morphology of mitochondria. Then co-stain experiments with commercial mitochondrial probe MitoTracker™ Deep Red FM (MTDR) were carried out (FIG. 6).
It was speculated that the membrane permeability of the probe was a key factor for its selectivity to cancer cells, since the plasma membrane of cancer cells was reported to be more permeable than normal cells. Consequently, IVP-02 was modified by lengthening the alkyl chain at the pyridine salt side and indole side, respectively, to tune the membrane permeability. The synthetic route to these new IVP molecules is depicted in Scheme 1. Their chemical structures were fully characterized by ^1H NMR, ^13C NMR, and ^19F NMR. Then cancer cells A549 were stained with the five new molecules, respectively. […] The co-stain experiments with MTDR also confirmed their location in mitochondria in A549 cells in FIG. 7C. In addition to A549 cells, the same experiments were also carried in HeLa cells (FIGS. 8 and 9).

[5] = test system: cancer cells (A549 and HeLa) and normal cells (COS7 and HLF); assay: CLSM imaging of separately stained cancer and normal cells; assay type: cell-based; conditions: 2 μM, 30 min, same staining and imaging conditions
Protocol: FIG. 4 CLSM images of live cancer cells (A549 and HeLa) and normal cells (COS7 and HLF) stained with 2 μM IVP-02 for 30 min, respectively. λex=488 nm, λem=500-650 nm. Scale bar=20 μm.
as §1

[6] = Quantum yield in the solid state; assay type: physicochemical
Text: IVPI-2 is able to stain mitochondria in healthy live cancer cells. However, when Δψm decreases, IVPI-2 migrates into nucleolus. Since IVPI-2 is target-changeable according to the change of mitochondrial physiology, the chemical structure of IVPI-2 was modified in order to enhance the mitochondria to nucleolus migration. Iodide ion is a well-known effective fluorescent quencher due to its heavy-atom effect. The quantum yield of IVP-02 in the solid state is 4.3%, which is about 3 times than that of IVPI-02 (1.3%). An Exemplary synthetic route to certain embodiments of the compounds described herein is depicted in Scheme 1.

Two-photon absorption cross section (δ) ([2]; λex 780 nm): 106 GM
Two-photon absorption cross section (δ) ([2]; λex 800 nm): 287 GM
Two-photon absorption cross section (δ) ([2]; λex 820 nm): 173 GM
Two-photon absorption cross section (δ) ([2]; λex 840 nm): 194 GM
Two-photon absorption cross section (δ) ([2]; λex 860 nm): 271 GM
Two-photon absorption cross section (δ) ([2]; λex 880 nm): 227 GM
Two-photon absorption cross section (δ) ([2]; λex 900 nm): 78 GM
AIE activity ([3]; viscosity, temperature, RNA, solid state): possesses AIE activity
fluorescence in the solid state ([3]; λex 440 nm): around 575 nm
quantum yield [6]: 4.3%
quantum yield relative to IVPI-02 [6]: about 3 times
SMILES: CC[n+]1ccc(/C=C/c2c[nH]c3ccccc23)cc1 [IVP-02]
staining of A549 and HLF cells on different cover glasses [1]: only A549 cells on the upper cover glass were illuminated
co-localization coefficient with MTDR [4]: around 0.9
fluorescence intensity in normal cells versus cancer cells [5]: much weaker than that in cancer cells
